# Data: paper PMC10482975 (Nature Communications, 2023)
# Columns and labels:
# M5 mAChR WT = molecular target: T1, M5 mAChR WT (Homo sapiens, UniProt P08912); assay: [3H]-NMS radioligand dissociation binding, M5 mAChR WT
# T1 construct: expressed in transfected cells
# T1 sequence (P08912 1-532): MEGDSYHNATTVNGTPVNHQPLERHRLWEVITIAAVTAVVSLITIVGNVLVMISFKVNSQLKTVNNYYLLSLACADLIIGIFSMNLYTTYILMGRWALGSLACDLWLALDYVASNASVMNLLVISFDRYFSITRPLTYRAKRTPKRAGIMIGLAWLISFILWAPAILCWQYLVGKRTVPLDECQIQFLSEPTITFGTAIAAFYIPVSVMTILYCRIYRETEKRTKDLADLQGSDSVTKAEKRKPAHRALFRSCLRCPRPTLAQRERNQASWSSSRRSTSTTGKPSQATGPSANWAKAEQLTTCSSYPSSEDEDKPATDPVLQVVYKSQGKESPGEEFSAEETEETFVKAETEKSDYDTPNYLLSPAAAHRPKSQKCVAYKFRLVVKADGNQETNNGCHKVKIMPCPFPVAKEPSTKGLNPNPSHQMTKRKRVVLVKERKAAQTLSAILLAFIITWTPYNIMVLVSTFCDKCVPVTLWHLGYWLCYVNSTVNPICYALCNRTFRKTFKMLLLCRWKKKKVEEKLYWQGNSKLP
# Procedure: (§1) Flp-In Chinese hamster ovary (CHO) (Thermo Fisher Scientific) cells stably expressing mAChR WTs or mutant constructs were cultured in Dulbecco’s modified Eagle’s medium (DMEM, Invitrogen) containing 5% foetal bovine serum (FBS; ThermoTrace) and […] of hygromycin (Roche) in a humidified incubator (37 °C, 5% CO2). Upon reaching confluence, media was removed, cells were washed with phosphate buffered saline (PBS) and harvested from tissue culture flasks using versene (PBS with 0.2 g EDTA). Cells were then pelleted through centrifugation at 350 × g for three minutes followed by resuspension in DMEM + 5% FBS. Cells were then either plated for an assay or reseeded into a tissue culture flask.
# M4 mAChR F186A = molecular target: T2, M4 mAChR F186A (Homo sapiens, UniProt P08173, F186A); assay: [3H]-NMS radioligand dissociation binding, M4 mAChR F186A; details: for [3H]-NMS binding remaining (0 min = 100), MEAN: M4 F186A mAChR
# T2 construct: expressed in transfected cells
# T2 sequence (P08173 1-479 F186A): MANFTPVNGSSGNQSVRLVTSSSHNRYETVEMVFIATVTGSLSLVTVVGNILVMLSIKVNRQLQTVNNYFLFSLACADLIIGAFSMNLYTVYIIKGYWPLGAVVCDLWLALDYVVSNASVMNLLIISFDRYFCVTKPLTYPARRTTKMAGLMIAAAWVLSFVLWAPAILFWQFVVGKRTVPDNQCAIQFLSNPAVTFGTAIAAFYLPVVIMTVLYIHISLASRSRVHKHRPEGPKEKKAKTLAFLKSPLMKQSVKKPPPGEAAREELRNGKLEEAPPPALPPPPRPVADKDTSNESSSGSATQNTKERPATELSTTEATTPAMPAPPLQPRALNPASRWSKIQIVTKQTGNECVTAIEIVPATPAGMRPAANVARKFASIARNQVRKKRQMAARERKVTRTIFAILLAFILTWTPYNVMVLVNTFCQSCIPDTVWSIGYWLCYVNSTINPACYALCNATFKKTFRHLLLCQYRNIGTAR
# Procedure: as §1
# M3 mAChR WT = molecular target: T3, M3 mAChR WT (Homo sapiens, UniProt P20309); assay: [3H]-NMS radioligand dissociation binding, M3 mAChR WT
# T3 construct: expressed in transfected cells
# T3 sequence (P20309 whole entry): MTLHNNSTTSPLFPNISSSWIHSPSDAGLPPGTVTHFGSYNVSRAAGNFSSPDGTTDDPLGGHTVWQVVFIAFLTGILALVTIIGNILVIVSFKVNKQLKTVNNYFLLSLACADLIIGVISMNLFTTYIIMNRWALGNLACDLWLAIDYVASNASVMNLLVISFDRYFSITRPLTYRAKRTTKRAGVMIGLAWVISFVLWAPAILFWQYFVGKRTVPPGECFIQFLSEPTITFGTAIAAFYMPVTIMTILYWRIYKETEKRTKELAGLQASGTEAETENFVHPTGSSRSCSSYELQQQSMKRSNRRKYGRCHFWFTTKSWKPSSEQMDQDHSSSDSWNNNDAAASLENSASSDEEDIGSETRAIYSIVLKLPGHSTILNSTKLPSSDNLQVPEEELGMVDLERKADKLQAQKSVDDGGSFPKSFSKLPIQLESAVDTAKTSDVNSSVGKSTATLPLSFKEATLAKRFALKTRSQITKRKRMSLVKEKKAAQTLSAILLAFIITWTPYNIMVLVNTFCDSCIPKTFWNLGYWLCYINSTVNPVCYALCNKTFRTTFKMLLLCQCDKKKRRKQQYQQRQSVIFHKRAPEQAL
# Procedure: as §1
# M2 mAChR WT = molecular target: T4, M2 mAChR WT (Homo sapiens, UniProt P08172); assay: [3H]-NMS radioligand dissociation binding, M2 mAChR WT
# T4 construct: expressed in transfected cells
# T4 sequence (P08172 1-466): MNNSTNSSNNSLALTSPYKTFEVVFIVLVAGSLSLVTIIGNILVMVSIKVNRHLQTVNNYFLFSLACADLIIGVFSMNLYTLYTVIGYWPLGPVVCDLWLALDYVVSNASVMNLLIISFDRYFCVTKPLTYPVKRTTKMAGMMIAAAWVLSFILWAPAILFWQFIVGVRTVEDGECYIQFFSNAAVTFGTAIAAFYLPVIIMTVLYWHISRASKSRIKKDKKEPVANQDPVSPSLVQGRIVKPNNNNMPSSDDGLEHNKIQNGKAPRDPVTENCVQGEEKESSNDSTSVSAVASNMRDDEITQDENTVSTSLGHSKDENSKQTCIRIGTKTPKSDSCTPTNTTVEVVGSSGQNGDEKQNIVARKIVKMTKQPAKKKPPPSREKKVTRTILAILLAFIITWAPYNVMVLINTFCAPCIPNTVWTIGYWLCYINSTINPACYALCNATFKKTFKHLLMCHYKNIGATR
# Procedure: as §1
smiles,measurement,setting,value
CCCCCCOc1nsnc1C1=CCCN(C)C1 [xanomeline],allosteric effect on [3H]-NMS dissociation (in words),M5 mAChR WT,modest
same,"[3H]-NMS binding remaining (0 min = 100), MEAN","M5 mAChR WT; 10uM Atr + 10 μM Xano, 10 min",90.3151
same,"[3H]-NMS binding remaining (0 min = 100), MEAN","M5 mAChR WT; 10uM Atr + 10 μM Xano, 15 min",91.7238
same,"[3H]-NMS binding remaining (0 min = 100), MEAN","M5 mAChR WT; 10uM Atr + 10 μM Xano, 30 min",85.9775
same,"[3H]-NMS binding remaining (0 min = 100), MEAN","M5 mAChR WT; 10uM Atr + 10 μM Xano, 90 min",67.8458
same,"[3H]-NMS binding remaining (0 min = 100), MEAN","M5 mAChR WT; 10uM Atr + 10 μM Xano, 120 min",51.752
same,"[3H]-NMS binding remaining (0 min = 100), MEAN","M5 mAChR WT; 10uM Atr + 10 μM Xano, 210 min",35.86
same,"[3H]-NMS binding remaining (0 min = 100), MEAN","M5 mAChR WT; 10uM Atr + 30 μM Xano, 10 min",92.3387
same,"[3H]-NMS binding remaining (0 min = 100), MEAN","M5 mAChR WT; 10uM Atr + 30 μM Xano, 15 min",85.7238
same,"[3H]-NMS binding remaining (0 min = 100), MEAN","M5 mAChR WT; 10uM Atr + 30 μM Xano, 30 min",100.331
same,"[3H]-NMS binding remaining (0 min = 100), MEAN","M5 mAChR WT; 10uM Atr + 30 μM Xano, 90 min",61.0136
same,"[3H]-NMS binding remaining (0 min = 100), MEAN","M5 mAChR WT; 10uM Atr + 30 μM Xano, 120 min",51.9105
same,"[3H]-NMS binding remaining (0 min = 100), MEAN","M5 mAChR WT; 10uM Atr + 30 μM Xano, 210 min",31.039
same,"[3H]-NMS binding remaining (0 min = 100), MEAN","M5 mAChR WT; 10uM Atr + 100uM Xano, 10 min",94.3264
same,"[3H]-NMS binding remaining (0 min = 100), MEAN","M5 mAChR WT; 10uM Atr + 100uM Xano, 15 min",90.317
same,"[3H]-NMS binding remaining (0 min = 100), MEAN","M5 mAChR WT; 10uM Atr + 100uM Xano, 30 min",106.159
same,"[3H]-NMS binding remaining (0 min = 100), MEAN","M5 mAChR WT; 10uM Atr + 100uM Xano, 90 min",76.4682
same,"[3H]-NMS binding remaining (0 min = 100), MEAN","M5 mAChR WT; 10uM Atr + 100uM Xano, 120 min",67.0445
same,"[3H]-NMS binding remaining (0 min = 100), MEAN","M5 mAChR WT; 10uM Atr + 100uM Xano, 210 min",42.1563
same,"[3H]-NMS binding remaining (0 min = 100), MEAN","M4 mAChR F186A; 10uM Atr + 30 μM Xano, 30 min",78.1603
same,"[3H]-NMS binding remaining (0 min = 100), MEAN","M4 mAChR F186A; 10uM Atr + 30 μM Xano, 90 min",48.8248
same,"[3H]-NMS binding remaining (0 min = 100), MEAN","M4 mAChR F186A; 10uM Atr + 30 μM Xano, 180 min",47.3729
same,"[3H]-NMS binding remaining (0 min = 100), MEAN","M4 mAChR F186A; 10uM Atr + 100uM Xano, 30 min",72.0364
same,"[3H]-NMS binding remaining (0 min = 100), MEAN","M4 mAChR F186A; 10uM Atr + 100uM Xano, 90 min",60.4086
same,"[3H]-NMS binding remaining (0 min = 100), MEAN","M4 mAChR F186A; 10uM Atr + 100uM Xano, 180 min",46.0676
same,"[3H]-NMS binding remaining (0 min = 100), MEAN","M4 mAChR F186A; 10uM Atr + 100uM Xano, 300 min",23.3758
same,effect on [3H]-NMS dissociation (in words),M4 mAChR F186A; M4 mAChR F186A mutant,no longer retarded
same,IC50,M3 mAChR WT,182 µM
same,allosteric effect on [3H]-NMS dissociation (in words),M3 mAChR WT; M3 mAChR,modest
same,"[3H]-NMS binding remaining (0 min = 100), MEAN","M3 mAChR WT; M3 mAChR, 10uM Atr + 10 μM Xano, 10 min",102.824
same,"[3H]-NMS binding remaining (0 min = 100), MEAN","M3 mAChR WT; M3 mAChR, 10uM Atr + 10 μM Xano, 15 min",94.4472
same,"[3H]-NMS binding remaining (0 min = 100), MEAN","M3 mAChR WT; M3 mAChR, 10uM Atr + 10 μM Xano, 30 min",84.3079
same,"[3H]-NMS binding remaining (0 min = 100), MEAN","M3 mAChR WT; M3 mAChR, 10uM Atr + 10 μM Xano, 90 min",53.078
same,"[3H]-NMS binding remaining (0 min = 100), MEAN","M3 mAChR WT; M3 mAChR, 10uM Atr + 10 μM Xano, 120 min",40.5004
same,"[3H]-NMS binding remaining (0 min = 100), MEAN","M3 mAChR WT; M3 mAChR, 10uM Atr + 10 μM Xano, 210 min",20.6349
same,"[3H]-NMS binding remaining (0 min = 100), MEAN","M3 mAChR WT; M3 mAChR, 10uM Atr + 30 μM Xano, 10 min",103.273
same,"[3H]-NMS binding remaining (0 min = 100), MEAN","M3 mAChR WT; M3 mAChR, 10uM Atr + 30 μM Xano, 15 min",95.5713
same,"[3H]-NMS binding remaining (0 min = 100), MEAN","M3 mAChR WT; M3 mAChR, 10uM Atr + 30 μM Xano, 30 min",87.9383
same,"[3H]-NMS binding remaining (0 min = 100), MEAN","M3 mAChR WT; M3 mAChR, 10uM Atr + 30 μM Xano, 90 min",53.4947
same,"[3H]-NMS binding remaining (0 min = 100), MEAN","M3 mAChR WT; M3 mAChR, 10uM Atr + 30 μM Xano, 120 min",41.606
same,"[3H]-NMS binding remaining (0 min = 100), MEAN","M3 mAChR WT; M3 mAChR, 10uM Atr + 30 μM Xano, 210 min",24.8398
same,"[3H]-NMS binding remaining (0 min = 100), MEAN","M3 mAChR WT; M3 mAChR, 10uM Atr + 100uM Xano, 10 min",100.762
same,"[3H]-NMS binding remaining (0 min = 100), MEAN","M3 mAChR WT; M3 mAChR, 10uM Atr + 100uM Xano, 15 min",94.0238
same,"[3H]-NMS binding remaining (0 min = 100), MEAN","M3 mAChR WT; M3 mAChR, 10uM Atr + 100uM Xano, 30 min",90.7523
same,"[3H]-NMS binding remaining (0 min = 100), MEAN","M3 mAChR WT; M3 mAChR, 10uM Atr + 100uM Xano, 90 min",62.8848
same,"[3H]-NMS binding remaining (0 min = 100), MEAN","M3 mAChR WT; M3 mAChR, 10uM Atr + 100uM Xano, 120 min",45.8052
same,"[3H]-NMS binding remaining (0 min = 100), MEAN","M3 mAChR WT; M3 mAChR, 10uM Atr + 100uM Xano, 210 min",29.7551
same,allosteric effect on [3H]-NMS dissociation (in words),M2 mAChR WT,more pronounced
